Experimental findings from article PMC9037111, “Structure-based design, synthesis, and biological evaluation of novel piperine–resveratrol hybrids as antiproliferative agents targeting SIRT-2” (RSC Advances, 2021) are described below.

Read-outs that look alike come from different tables or passages of the source.

Experiment [1] deals with T1, SIRT2 (Homo sapiens, UniProt Q8IXJ6).
T1 sequence (Q8IXJ6 2-389): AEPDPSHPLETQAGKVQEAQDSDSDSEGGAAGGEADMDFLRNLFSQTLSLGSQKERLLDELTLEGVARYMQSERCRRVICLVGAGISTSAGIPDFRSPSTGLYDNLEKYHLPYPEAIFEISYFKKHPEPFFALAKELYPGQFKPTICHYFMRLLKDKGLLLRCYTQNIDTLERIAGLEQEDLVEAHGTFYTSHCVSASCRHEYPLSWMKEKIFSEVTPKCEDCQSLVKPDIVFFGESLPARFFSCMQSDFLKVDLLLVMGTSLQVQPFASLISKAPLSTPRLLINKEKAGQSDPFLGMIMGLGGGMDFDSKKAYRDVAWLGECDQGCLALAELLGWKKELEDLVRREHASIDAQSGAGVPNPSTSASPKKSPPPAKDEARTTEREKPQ
The experiment can be described thus: sirtuin deacetylase inhibition assay, % inhibition at […] ([…] at […]). It is filed as biochemical.

Experiment [2] concerns the target T2, SIRT1 (Homo sapiens, UniProt Q96EB6).
T2 sequence (Q96EB6 2-747): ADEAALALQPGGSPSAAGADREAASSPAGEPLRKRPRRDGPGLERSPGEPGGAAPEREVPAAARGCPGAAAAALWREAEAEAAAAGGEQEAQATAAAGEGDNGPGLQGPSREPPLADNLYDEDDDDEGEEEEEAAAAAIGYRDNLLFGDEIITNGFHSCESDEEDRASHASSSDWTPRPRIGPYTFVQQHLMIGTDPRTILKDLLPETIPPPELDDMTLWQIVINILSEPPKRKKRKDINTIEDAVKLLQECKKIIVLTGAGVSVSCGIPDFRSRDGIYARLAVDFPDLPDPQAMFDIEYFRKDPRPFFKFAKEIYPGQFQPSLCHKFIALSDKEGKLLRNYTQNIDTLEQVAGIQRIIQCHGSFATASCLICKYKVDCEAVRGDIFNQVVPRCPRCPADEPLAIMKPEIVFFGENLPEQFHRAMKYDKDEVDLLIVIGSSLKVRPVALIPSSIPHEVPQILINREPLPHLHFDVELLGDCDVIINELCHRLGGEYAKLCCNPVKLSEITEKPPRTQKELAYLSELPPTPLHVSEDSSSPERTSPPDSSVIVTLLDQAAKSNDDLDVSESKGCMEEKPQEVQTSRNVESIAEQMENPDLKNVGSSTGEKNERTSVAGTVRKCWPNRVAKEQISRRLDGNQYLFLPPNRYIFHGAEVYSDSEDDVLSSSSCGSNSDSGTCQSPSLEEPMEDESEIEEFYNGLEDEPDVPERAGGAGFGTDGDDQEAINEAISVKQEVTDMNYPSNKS
The experiment can be described thus: biochemical. Set-up: Sirtuin-TK assay, percent inhibition of human SIRT1 or SIRT2 at 5 and 50 uM. On the procedure: (§1) Sirtuin-TK assay was performed to estimate the Sirtuins inhibitory potential of 5a–h (Tables 2 and 3). The results of this test strongly complemented the findings of cancer cell-based assessments. […] Of the 8 compounds evaluated, 3 analogs (5b, 5e and 5h) were more likely to inhibit Sirt2 (>70% inhibition) than Sirt1 (<50% inhibition) at 50 μM. The other compounds were poor inhibitors of both enzymes. […] 4.2.2. Sirtuin inhibitory assay

In experiment [3] the target is T1, SIRT2. The experiment can be described thus: biochemical. Set-up: Sirtuin-TK assay, percent inhibition of human SIRT1 or SIRT2 at 5 and 50 uM. On the procedure:
as §1

The test system of experiment [4] is MCF7. The experiment can be described thus: cells. Set-up: species or system NCI-60 human tumour cell lines; NCI-60 one-dose screen at 10 uM, percent growth inhibition versus untreated control cells. The note with it: Homo sapiens, MCF7; growth inhibition, one dose; read-out: Growth% inhibition / 5c. On the procedure:
(§2) The antiproliferative activity of the target compounds 5a–h was screened against a panel of 60 cancer cell lines according to NCI-guidelines at concentration of 10 μM. The results for each compound (Table 1) were recorded as the percent of growth inhibition of treated cells compared to untreated control cells. […] In addition, 5b recorded significant activity against leukemia cancer cell lines K-562 and MOLT-4, Non-small cell lung cancer cell lines NCI-H322M and NCI-H460, Colon cancer cell lines COLO 205, HCT-15 and HCT-116, CNS cancer cell lines SF-295 and SF-539, Melanoma cancer cell lines LOX IMVI and UACC-62, Ovarian cancer cell lines NCI/ADR-RES, OVCAR-3, and OVCAR-4, Renal cancer cell lines CAKI-1, ACHN, and UO-31, and Breast cancer MCF7 cell line with growth inhibition percentage between 80 to 95. […] The methodology of the NCI anticancer screening has been described in detail elsewhere (https://dtp.cancer.gov/).[52]

The test system of experiment [5] is T-47D. The experiment can be described thus: cells. Set-up: species or system NCI-60 human tumour cell lines; NCI-60 one-dose screen at 10 uM, percent growth inhibition versus untreated control cells. The note with it: Homo sapiens, T47D; growth inhibition, one dose; read-out: Growth% inhibition / 5c. Here is the method:
as §2

Experiment [6] concerns NCI-H522. Put plainly: cells. Set-up: species or system NCI-60 human tumour cell lines; NCI-60 one-dose screen at 10 uM, percent growth inhibition versus untreated control cells. The note with it: Homo sapiens, NCI-H522; growth inhibition, one dose; read-out: Growth% inhibition / 5c. Here is the method:
as §2

For experiment [7], the system named is SF-539. Put plainly: cells. Set-up: species or system NCI-60 human tumour cell lines; NCI-60 one-dose screen at 10 uM, percent growth inhibition versus untreated control cells. The note with it: Homo sapiens, SF-539; growth inhibition, one dose; read-out: Growth% inhibition / 5c. Here is the method:
as §2

In experiment [8] the test system is UACC-62. Put plainly: cells. Set-up: species or system NCI-60 human tumour cell lines; NCI-60 one-dose screen at 10 uM, percent growth inhibition versus untreated control cells. The note with it: Homo sapiens, UACC-62, growth inhibition, one dose. Here is the method:
as §2

Experiment [9] concerns K-562. Put plainly: cells. The note with it: Homo sapiens, K562; growth inhibition, one dose; read-out: Growth% inhibition / 5c. Set-up: species or system NCI-60 human tumour cell lines; NCI-60 one-dose screen at 10 uM, percent growth inhibition versus untreated control cells. On the procedure: as §2
In experiment [10] the test system is NCI-H322M. Put plainly: cells. Set-up: species or system NCI-60 human tumour cell lines; NCI-60 one-dose screen at 10 uM, percent growth inhibition versus untreated control cells. The note with it: Homo sapiens, NCI-H322M; growth inhibition, one dose; read-out: Growth% inhibition / 5c. Here is the method: as §2
The subject of experiment [11] is UO-31. Put plainly: cells. Set-up: species or system NCI-60 human tumour cell lines; NCI-60 one-dose screen at 10 uM, percent growth inhibition versus untreated control cells. The note with it: Homo sapiens, UO-31, growth inhibition, one dose. On the procedure: as §2
In experiment [12] the test system is CCRF-CEM. Put plainly: cells. Set-up: species or system NCI-60 human tumour cell lines; NCI-60 one-dose screen at 10 uM, percent growth inhibition versus untreated control cells. The note with it: Homo sapiens, CCRF-CEM; growth inhibition, one dose; read-out: Growth% inhibition / 5c. Here is the method:
as §2

Experiment [13] concerns BT-549. The experiment can be described thus: cells. Set-up: species or system NCI-60 human tumour cell lines; NCI-60 one-dose screen at 10 uM, percent growth inhibition versus untreated control cells. The note with it: Homo sapiens, BT-549; growth inhibition, one dose; read-out: Growth% inhibition / 5c. Here is the method:
as §2

Experiment [14] has as its system NCI-H226. Put plainly: cells. Set-up: species or system NCI-60 human tumour cell lines; NCI-60 one-dose screen at 10 uM, percent growth inhibition versus untreated control cells. The note with it: Homo sapiens, NCI-H226, growth inhibition, one dose. Here is the method:
as §2

Experiment [15] relates to RPMI-8226. Put plainly: cells. Set-up: species or system NCI-60 human tumour cell lines; NCI-60 one-dose screen at 10 uM, percent growth inhibition versus untreated control cells. The note with it: Homo sapiens, RPMI-8226; growth inhibition, one dose; read-out: Growth% inhibition / 5c. Here is the method: as §2
Experiment [16] has as its target T1, SIRT2. Put plainly: sirtuin deacetylase inhibition assay, % inhibition at […] ([…] at […]). It is filed as biochemical. The source holds these as a separate data set.
Experiment [17] deals with HOP-92. Put plainly: cells. Set-up: species or system NCI-60 human tumour cell lines; NCI-60 one-dose screen at 10 uM, percent growth inhibition versus untreated control cells. The note with it: Homo sapiens, HOP-92; growth inhibition, one dose; read-out: Growth% inhibition / 5f. On the procedure: as §2
Experiment [18] relates to CAKI-1. The experiment can be described thus: cells. Set-up: species or system NCI-60 human tumour cell lines; NCI-60 one-dose screen at 10 uM, percent growth inhibition versus untreated control cells. The note with it: Homo sapiens, CAKI-1; growth inhibition, one dose; read-out: Growth% inhibition / 5f. On the procedure: as §2
Experiment [19] relates to IGROV1. The experiment can be described thus: cells. Set-up: species or system NCI-60 human tumour cell lines; NCI-60 one-dose screen at 10 uM, percent growth inhibition versus untreated control cells. The note with it: Homo sapiens, IGROV-1, growth inhibition, one dose. On the procedure: as §2
Experiment [20] concerns SNB-75. The experiment can be described thus: cells. Set-up: species or system NCI-60 human tumour cell lines; NCI-60 one-dose screen at 10 uM, percent growth inhibition versus untreated control cells. The note with it: Homo sapiens, SNB-75, growth inhibition, one dose. On the procedure:
as §2

The subject of experiment [21] is SR. The experiment can be described thus: cells. Set-up: species or system NCI-60 human tumour cell lines; NCI-60 one-dose screen at 10 uM, percent growth inhibition versus untreated control cells. The note with it: Homo sapiens, SR; growth inhibition, one dose; read-out: Growth% inhibition / 5f. On the procedure:
as §2

The target in experiment [22] is T1, SIRT2. The experiment can be described thus: sirtuin deacetylase inhibition assay, % inhibition at […] ([…] at […]). It is filed as biochemical. The source holds these as a separate data set.
Experiment [23] has as its system LOX IMVI. The experiment can be described thus: cells. Set-up: species or system NCI-60 human tumour cell lines; NCI-60 one-dose screen at 10 uM, percent growth inhibition versus untreated control cells. The note with it: Homo sapiens, LOX IMVI; growth inhibition, one dose; read-out: Growth% inhibition / 5g. On the procedure: as §2
Setting [24] is: read-out: Growth% inhibition / 5c.
Setting [25] is: read-out: Growth% inhibition / 5f.
Setting [26] is: read-out: Growth% inhibition / 5g.

Consider `COc1cc(C=NNC(=O)/C=C/C=C/c2ccc3c(c2)OCO3)ccc1O` [5c, (2E,4E)-5-(Benzo[d][1,3]dioxol-5-yl)-N′-((E,Z)-4-hydroxy-3-methoxybenzylidene)penta-2,4-dienehydrazide], for which the inhibition at 50 µM in experiment [1] came out at 58 ± 3%; in [2] it was 38 ± 3%. Besides, the inhibition at 5 µM in [2] stood at 12 ± 1%; in experiment [3] it was 17 ± 3%. Besides, the inhibition at 10 µM in [4] was 20.1%; in [5], 19.8%; in experiment [6], 22%; in [7], 15.3%; in experiment [8] (setting [24]) it was 11.3%; in [9], 10.5%. The inhibition at 10 µM worked out at 14.7% in experiment [10]; 14% in [11] (setting [24]); 12.1% in experiment [12]; 13.6% in experiment [13]; 18.3% in experiment [14] (setting [24]); 15.3% in experiment [15].

For `O=C(/C=C/C=C/c1ccc2c(c1)OCO2)NN=C(c1ccc(F)cc1)c1ccc(F)cc1` [5f, (2E,4E)-5-(Benzo[d][1,3]dioxol-5-yl)-N′-(bis(4-fluorophenyl)methylene)penta-2,4-dienehydrazide], the inhibition at 50 µM in [16] was 69 ± 3%; in [2], 39 ± 3%. For the same molecule, the values for the inhibition at 5 µM in experiment [2] and in experiment [3] were 14 ± 4% and 20 ± 4%, respectively. In addition, the inhibition at 10 µM worked out at 13.8% in experiment [17]; 12.8% in [18]; 12.1% in experiment [19] (setting [25]); 12.2% in [8] (setting [25]); 18.3% in experiment [11] (setting [25]); 16.6% in experiment [20] (setting [25]). The inhibition at 10 µM in [21] is 36.3%.

For the molecule `CC(C)(C)c1cc(/C=N/NC(=O)/C=C/C=C/c2ccc3c(c2)OCO3)c(O)c(C(C)(C)C)c1` [5g, (2E,4E)-5-(Benzo[d][1,3]dioxol-5-yl)-N′-((E)-3,5-di-tert-butyl-2-hydroxy-benzylidene)penta-2,4-dienehydrazide], the results for the inhibition at 50 µM in [22] and in experiment [2] were 55 ± 1% and 35 ± 1%, respectively. The inhibition at 5 µM turned out to be 9 ± 2% in experiment [2] and 19 ± 2% in experiment [3]. The inhibition at 10 µM in [19] (setting [26]) is 14.1%; in experiment [23] it was 12.1%; in experiment [11] (setting [26]), 27.9%; in experiment [14] (setting [26]), 10.1%; in [20] (setting [26]) it was 33%.
